Legend:
Format in all cases: cell-based
Staphylococcus aureus = assay: Conclusion from the measurement of MBC (liquid medium dilution method); conditions: from the results of the measurement of MBC (Table 4)
Protocol: (§1) Measurements of MIC and Minimum Bactericidal Concentration (MBC) by Using a Liquid Medium Dilution Method
(§2) The serial twofold dilution solution of the sample is prepared in the same manner as in the agar medium dilution method. 30 μL of the sample solution having each concentration is added to 3 mL of a liquid medium (NYG medium), to which is further added 60 μL of a test bacteria solution and the medium is cultured at 30° C. for 48 hours.
(§3) A change of the turbidity of the medium is measured using a wavelength of 660 nm to find MIC. The media 60 μL each are taken out from a test tube in which no growth of the bacteria is found and implanted in 3 mL of a new medium and cultured for 48 hours. The minimum concentration at which no growth of the bacteria was observed is defined MBC.

[1] = test system: Staphylococcus aureus IAM12082; assay: MIC and MBC, liquid medium dilution method (NYG medium), qualification method 2; conditions: method 2, liquid medium
Protocol: as §1, §2, §3

[2] = test system: Staphylococcus aureus ATCC6538; assay: as above; conditions: method 2, liquid medium
Protocol: as §1, §2, §3

[3] = test system: Fusobacterium nuclestum JCM 6328; assay: MIC, agar medium dilution method (Trypticase Soy Agar); conditions: (d) Fusobacterium nuclestum, 37° C., 72 hours
Protocol: (§4) Test for Antibacterial Ability (Measurement of Minimum Inhibitory Concentration (MIC) Using an Agar Medium Dilution Method)
(§5) The samples shown below were dissolved in ethanol to prepare a serial twofold dilution stage and 100 μL of each was added to 10 mL of a sterilized agar medium (Trypticase Soy Agar (BBL)), which was then stirred sufficiently, then transferred to a 9-cm-diameter Petri dish and solidified at ambient temperature. 5 μL of a diluted test bacteria (shown below) solution was implanted in the Petri dish and cultured at 37° C. for 72 hours. After the culturing was finished, the growth state of the medium in this Petri dish was compared with that in a Petri dish (blank) containing no sample and the concentration of the sample in which the growth of bacteria was not seen was defined as MIC.

[4] = test system: Actionmyces viscosus JCM 8352; assay: as above; conditions: (c) Actionmyces viscosus, 37° C., 72 hours
Protocol: as §4, §5

[5] = test system: Actinomyces naeslundii JCM 8350; assay: as above; conditions: (b) Actinomyces naeslundii, 37° C., 72 hours
Protocol: as §4, §5

[6] = test system: Streptococcus mutans JCM 5175; assay: as above; conditions: (a) Streptococcus mutans, 37° C., 72 hours
Protocol: as §4, §5

[7] = test system: Prevotella intermedia JCM 6322; assay: as above; conditions: (e) Prevotella intermedia, 37° C., 72 hours
Protocol: as §4, §5

[8] = test system: Porphyromonas gingivalis JCM 8525; assay: as above; conditions: (f) Porphyromonas gingivalis, 37° C., 72 hours
Protocol: as §4, §5

[9] = test system: Corynebacterium xerosis JCM 1324; assay: MIC, agar medium dilution method (Mueller Hinton medium); conditions: (d) Corynebacterium xerosis, 37° C., 72 hours
Protocol: as §5, with “Test for Antibacterial Ability (Measurement of Minimum Inhibitory Concentration (MIC) Using an Agar Medium Dilution Method) The” for “The”, “samples” for “samples shown below”, “medium,” for “medium (Trypticase Soy Agar (BBL)),”, “bacteria” for “bacteria (shown below)”, “minimum inhibitory concentration (MIC). (d) Corynebacterium xerosis JCM 1324 (g) Corynebacterium minutissimum IFO 15361 • Mueller Hinton medium (Difco) in these cases Sample” for “MIC.”

[10] = test system: Bacillus subtilis PCI 219; assay: MIC, agar medium dilution method; conditions: 37° C., 72 hours
Protocol: as §5, with “Test for Antibacterial Ability (Measurement of Minimum Inhibitory Concentration (MIC) Using an Agar Medium Dilution Method) The” for “The”, “samples” for “samples shown below”, “medium,” for “medium (Trypticase Soy Agar (BBL)),”, “bacteria” for “bacteria (shown below)”, “minimum inhibitory concentration (MIC).” for “MIC.”

[11] = test system: Propionibacterium acnes JCM 6473; assay: MIC, agar medium dilution method (Trypticase Soy Agar); conditions: (a) Propionibacterium acnes JCM 6473, 37° C., 72 hours
Protocol: as §5, with “Test for Antibacterial Ability (Measurement of Minimum Inhibitory Concentration (MIC) Using an Agar Medium Dilution Method) The” for “The”, “samples” for “samples shown below”, “medium,” for “medium (Trypticase Soy Agar (BBL)),”, “bacteria” for “bacteria (shown below)”, “minimum inhibitory concentration (MIC). (a) Propionibacterium acnes JCM 6473 (c) Bacteriodes fragilis GAI 5560 • Trypticase Soy Agar (BBL) in these cases” for “MIC.”

[12] = test system: Corynebacterium minutissimum IFO 15361; assay: MIC, agar medium dilution method (Mueller Hinton medium); conditions: (g) Corynebacterium minutissimum, 37° C., 72 hours
Protocol: as §5, with “Test for Antibacterial Ability (Measurement of Minimum Inhibitory Concentration (MIC) Using an Agar Medium Dilution Method) The” for “The”, “samples” for “samples shown below”, “medium,” for “medium (Trypticase Soy Agar (BBL)),”, “bacteria” for “bacteria (shown below)”, “minimum inhibitory concentration (MIC). (g) Corynebacterium minutissimum IFO 15361 • Mueller Hinton medium (Difco) in these cases Sample” for “MIC.”

[13] = test system: Propionibacterium acnes ATCC 6919; assay: MIC, agar medium dilution method (Trypticase Soy Agar); conditions: (b) Propionibacterium acnes ATCC 6919, 37° C., 72 hours
Protocol: as §5, with “Test for Antibacterial Ability (Measurement of Minimum Inhibitory Concentration (MIC) Using an Agar Medium Dilution Method) The” for “The”, “samples” for “samples shown below”, “medium,” for “medium (Trypticase Soy Agar (BBL)),”, “bacteria” for “bacteria (shown below)”, “minimum inhibitory concentration (MIC). (b) Propionibacterium acnes ATCC 6919 (c) Bacteriodes fragilis GAI 5560 • Trypticase Soy Agar (BBL) in these cases” for “MIC.”

[14] = test system: Bacteriodes fragilis GAI 5560; assay: as above; conditions: (c) Bacteriodes fragilis, 37° C., 72 hours
Protocol: as §5, with “Test for Antibacterial Ability (Measurement of Minimum Inhibitory Concentration (MIC) Using an Agar Medium Dilution Method) The” for “The”, “samples” for “samples shown below”, “medium,” for “medium (Trypticase Soy Agar (BBL)),”, “bacteria” for “bacteria (shown below)”, “minimum inhibitory concentration (MIC). (c) Bacteriodes fragilis GAI 5560 • Trypticase Soy Agar (BBL) in these cases” for “MIC.”

[15] = test system: Staphylococcus aureus 209P IAM 12082; assay: MIC, agar medium dilution method (Mueller Hinton medium), qualification test method 1; conditions: method 1, agar, 37° C., 72 hours
Protocol: as §5, with “Test for Antibacterial Ability (Measurement of Minimum Inhibitory Concentration (MIC) Using an Agar Medium Dilution Method) Measurement of Minimum Inhibitory Concentration (MIC) Using an Agar Medium Dilution Method The” for “The”, “(Mueller Hinton medium (Difco)),” for “(Trypticase Soy Agar (BBL)),”, “bacteria” for “bacteria (shown below)”, “minimum inhibitory concentration (MIC).” for “MIC.”

[16] = test system: Staphylococcus aureus ATCC 6538; assay: as above; conditions: method 1, agar, 37° C., 72 hours
Protocol: as §5, with “Test for Antibacterial Ability (Measurement of Minimum Inhibitory Concentration (MIC) Using an Agar Medium Dilution Method) Measurement of Minimum Inhibitory Concentration (MIC) Using an Agar Medium Dilution Method The” for “The”, “(Mueller Hinton medium (Difco)),” for “(Trypticase Soy Agar (BBL)),”, “bacteria” for “bacteria (shown below)”, “minimum inhibitory concentration (MIC).” for “MIC.”

[17] = test system: Bacillus subtilis PCI 219 IFO 3134; assay: as above; conditions: method 1, agar, 37° C., 72 hours
Protocol: as §5, with “Test for Antibacterial Ability (Measurement of Minimum Inhibitory Concentration (MIC) Using an Agar Medium Dilution Method) Measurement of Minimum Inhibitory Concentration (MIC) Using an Agar Medium Dilution Method The” for “The”, “(Mueller Hinton medium (Difco)),” for “(Trypticase Soy Agar (BBL)),”, “bacteria” for “bacteria (shown below)”, “minimum inhibitory concentration (MIC).” for “MIC.”

[18] = test system: Staphylococcus epidermides JCM 2414; assay: MIC, agar medium dilution method (Mueller Hinton medium); conditions: (f) Staphylococcus epidermides, 37° C., 72 hours
Protocol: as §5, with “Test for Antibacterial Ability (Measurement of Minimum Inhibitory Concentration (MIC) Using an Agar Medium Dilution Method) The” for “The”, “samples” for “samples shown below”, “medium,” for “medium (Trypticase Soy Agar (BBL)),”, “bacteria” for “bacteria (shown below)”, “minimum inhibitory concentration (MIC). (f) Staphylococcus epidermides JCM 2414 (g) Corynebacterium minutissimum IFO 15361 • Mueller Hinton medium (Difco) in these cases Sample” for “MIC.”

[19] = test system: Malassezia furfur IFO 0656; assay: as above; conditions: (e) Malassezia furfur, 37° C., 72 hours
Protocol: as §5, with “Test for Antibacterial Ability (Measurement of Minimum Inhibitory Concentration (MIC) Using an Agar Medium Dilution Method) The” for “The”, “samples” for “samples shown below”, “medium,” for “medium (Trypticase Soy Agar (BBL)),”, “bacteria” for “bacteria (shown below)”, “minimum inhibitory concentration (MIC). (e) Malassezia furfur IFO 0656 (g) Corynebacterium minutissimum IFO 15361 • Mueller Hinton medium (Difco) in these cases Sample” for “MIC.”

Oc1cc(Cl)ccc1Oc1ccc(Cl)cc1Cl [Sample C-1, Trichlosane]
bactericidal or bacteriostatic action (Staphylococcus aureus): strong bactericidal activity
MBC [1]: 0.977 ppm
MIC ([1]; 30° C., 48 hours): 0.244 ppm
MBC [2]: 1.95 ppm
MIC ([2]; 30° C., 48 hours): 0.977 ppm
MIC [3]: 3.1 ppm
MIC [4]: 3.1 ppm
MIC [5]: 3.1 ppm
MIC [6]: 6.3 ppm
MIC [7]: 3.1 ppm
MIC [8]: 3.1 ppm

CCCCOC(=O)c1ccc(O)cc1 [Sample C-2, Butylparabene]
Minimum inhibitory concentration (MIC) [9]: 50 ppm
Minimum inhibitory concentration (MIC) [10]: 200 ppm
Minimum inhibitory concentration (MIC) [11]: 100 ppm
Minimum inhibitory concentration (MIC) [12]: 200 ppm
Minimum inhibitory concentration (MIC) [13]: 100 ppm
Minimum inhibitory concentration (MIC) [14]: 50 ppm
MIC [15]: 100 ppm
MIC [16]: 200 ppm
MIC [17]: 200 ppm
Minimum inhibitory concentration (MIC) [18]: 200 ppm
Minimum inhibitory concentration (MIC) [19]: 100 ppm
MIC [3]: 100 ppm
MIC [4]: 100 ppm
MIC [5]: 100 ppm
MIC [6]: 200 ppm
MIC [7]: 100 ppm
MIC [8]: 50 ppm
